Assay results as given in ChEMBL document CHEMBL5291721, “A preclinical secondary pharmacology resource illuminates target-adverse drug reaction associations of marketed drugs” (Nat Commun, 2023).

Columns and labels:
[1] = target: T1, Alpha-2A adrenergic receptor (Homo sapiens, UniProt P08913); format: functional, cell-based
T1 sequence (P08913 whole entry): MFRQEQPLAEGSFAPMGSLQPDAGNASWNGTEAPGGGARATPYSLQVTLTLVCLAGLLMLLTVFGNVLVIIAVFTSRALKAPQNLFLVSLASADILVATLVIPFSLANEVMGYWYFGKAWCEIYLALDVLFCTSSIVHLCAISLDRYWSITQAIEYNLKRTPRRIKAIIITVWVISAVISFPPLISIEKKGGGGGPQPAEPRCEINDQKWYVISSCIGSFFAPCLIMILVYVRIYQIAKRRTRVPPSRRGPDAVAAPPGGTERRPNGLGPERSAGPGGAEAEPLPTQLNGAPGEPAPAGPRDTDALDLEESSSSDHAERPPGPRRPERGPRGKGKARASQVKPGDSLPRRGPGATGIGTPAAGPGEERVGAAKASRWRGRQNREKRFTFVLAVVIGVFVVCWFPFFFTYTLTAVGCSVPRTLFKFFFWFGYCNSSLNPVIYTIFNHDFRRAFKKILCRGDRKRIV

[2] = target: 5-hydroxytryptamine receptor 2B (Homo sapiens, UniProt P41595); format: functional, cell-based
Chain of 5-hydroxytryptamine receptor 2B (P41595 whole entry): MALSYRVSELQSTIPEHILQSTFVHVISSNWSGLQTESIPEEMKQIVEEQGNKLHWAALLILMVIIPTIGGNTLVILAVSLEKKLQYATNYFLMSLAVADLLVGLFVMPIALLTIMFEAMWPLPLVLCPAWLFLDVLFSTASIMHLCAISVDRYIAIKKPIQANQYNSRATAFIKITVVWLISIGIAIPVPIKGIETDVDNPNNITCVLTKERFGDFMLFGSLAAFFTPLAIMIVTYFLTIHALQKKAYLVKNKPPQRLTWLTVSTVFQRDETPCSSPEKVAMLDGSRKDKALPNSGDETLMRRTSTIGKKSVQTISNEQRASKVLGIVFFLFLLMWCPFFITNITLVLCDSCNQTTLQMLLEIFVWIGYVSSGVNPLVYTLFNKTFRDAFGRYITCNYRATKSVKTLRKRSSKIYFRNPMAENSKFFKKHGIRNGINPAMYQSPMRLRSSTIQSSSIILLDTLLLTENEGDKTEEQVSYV

D(1A) dopamine receptor = D(1A) dopamine receptor (Homo sapiens, UniProt P21728); format: functional, cell-based
Chain of D(1A) dopamine receptor (P21728 whole entry): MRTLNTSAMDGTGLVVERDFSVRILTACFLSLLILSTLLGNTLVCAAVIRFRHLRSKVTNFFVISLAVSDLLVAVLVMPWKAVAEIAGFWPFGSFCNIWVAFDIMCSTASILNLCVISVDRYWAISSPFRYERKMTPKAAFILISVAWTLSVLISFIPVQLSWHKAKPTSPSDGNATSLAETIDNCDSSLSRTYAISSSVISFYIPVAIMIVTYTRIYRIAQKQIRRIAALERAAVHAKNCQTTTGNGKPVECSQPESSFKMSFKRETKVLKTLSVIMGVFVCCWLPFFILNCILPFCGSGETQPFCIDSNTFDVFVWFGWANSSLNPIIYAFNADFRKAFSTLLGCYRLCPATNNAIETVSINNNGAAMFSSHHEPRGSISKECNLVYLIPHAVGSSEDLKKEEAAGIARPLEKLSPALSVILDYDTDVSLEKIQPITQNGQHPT

[3] = target: T2, Alpha-2C adrenergic receptor (Homo sapiens, UniProt P18825); format: functional
T2 sequence (P18825 whole entry): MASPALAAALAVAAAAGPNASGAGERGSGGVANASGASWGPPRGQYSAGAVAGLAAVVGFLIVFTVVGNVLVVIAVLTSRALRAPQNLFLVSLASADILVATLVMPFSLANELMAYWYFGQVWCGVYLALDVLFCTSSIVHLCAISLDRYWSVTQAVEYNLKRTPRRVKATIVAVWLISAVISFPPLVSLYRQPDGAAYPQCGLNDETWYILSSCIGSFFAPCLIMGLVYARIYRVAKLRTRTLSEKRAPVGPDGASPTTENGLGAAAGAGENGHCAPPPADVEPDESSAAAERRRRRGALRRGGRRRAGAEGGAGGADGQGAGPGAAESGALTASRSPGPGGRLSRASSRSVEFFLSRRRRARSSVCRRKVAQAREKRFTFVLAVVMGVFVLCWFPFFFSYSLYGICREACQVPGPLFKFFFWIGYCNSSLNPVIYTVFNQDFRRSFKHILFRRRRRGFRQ

B2 bradykinin receptor = target: T3, B2 bradykinin receptor (Homo sapiens, UniProt P30411)
T3 sequence (P30411 whole entry): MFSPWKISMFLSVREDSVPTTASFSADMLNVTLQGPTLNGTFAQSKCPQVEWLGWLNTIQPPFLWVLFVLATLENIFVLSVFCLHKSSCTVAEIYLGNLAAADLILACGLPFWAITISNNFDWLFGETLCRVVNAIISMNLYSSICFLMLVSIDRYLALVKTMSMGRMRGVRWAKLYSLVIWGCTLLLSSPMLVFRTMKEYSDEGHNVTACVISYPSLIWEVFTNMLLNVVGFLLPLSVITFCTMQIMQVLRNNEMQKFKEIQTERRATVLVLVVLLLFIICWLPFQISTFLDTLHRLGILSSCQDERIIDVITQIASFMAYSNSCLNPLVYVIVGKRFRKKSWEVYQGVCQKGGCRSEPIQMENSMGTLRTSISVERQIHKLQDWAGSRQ

Vasopressin V2 receptor = Vasopressin V2 receptor (Homo sapiens, UniProt P30518)
Chain of Vasopressin V2 receptor (P30518 whole entry): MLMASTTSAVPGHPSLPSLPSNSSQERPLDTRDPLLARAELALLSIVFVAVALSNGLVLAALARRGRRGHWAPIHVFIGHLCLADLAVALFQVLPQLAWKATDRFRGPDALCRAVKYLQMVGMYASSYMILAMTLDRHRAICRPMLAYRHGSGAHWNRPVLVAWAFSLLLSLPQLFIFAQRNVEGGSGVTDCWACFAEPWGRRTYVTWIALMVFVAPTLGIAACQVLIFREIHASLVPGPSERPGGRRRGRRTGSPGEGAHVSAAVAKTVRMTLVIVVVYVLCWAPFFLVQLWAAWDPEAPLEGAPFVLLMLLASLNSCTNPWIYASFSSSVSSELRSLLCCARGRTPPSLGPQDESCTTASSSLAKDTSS

[4] = target: Voltage-gated inwardly rectifying potassium channel KCNH2 (Homo sapiens, UniProt Q12809); format: functional; settings: read-out: AC50
Chain of Voltage-gated inwardly rectifying potassium channel KCNH2 (Q12809 whole entry): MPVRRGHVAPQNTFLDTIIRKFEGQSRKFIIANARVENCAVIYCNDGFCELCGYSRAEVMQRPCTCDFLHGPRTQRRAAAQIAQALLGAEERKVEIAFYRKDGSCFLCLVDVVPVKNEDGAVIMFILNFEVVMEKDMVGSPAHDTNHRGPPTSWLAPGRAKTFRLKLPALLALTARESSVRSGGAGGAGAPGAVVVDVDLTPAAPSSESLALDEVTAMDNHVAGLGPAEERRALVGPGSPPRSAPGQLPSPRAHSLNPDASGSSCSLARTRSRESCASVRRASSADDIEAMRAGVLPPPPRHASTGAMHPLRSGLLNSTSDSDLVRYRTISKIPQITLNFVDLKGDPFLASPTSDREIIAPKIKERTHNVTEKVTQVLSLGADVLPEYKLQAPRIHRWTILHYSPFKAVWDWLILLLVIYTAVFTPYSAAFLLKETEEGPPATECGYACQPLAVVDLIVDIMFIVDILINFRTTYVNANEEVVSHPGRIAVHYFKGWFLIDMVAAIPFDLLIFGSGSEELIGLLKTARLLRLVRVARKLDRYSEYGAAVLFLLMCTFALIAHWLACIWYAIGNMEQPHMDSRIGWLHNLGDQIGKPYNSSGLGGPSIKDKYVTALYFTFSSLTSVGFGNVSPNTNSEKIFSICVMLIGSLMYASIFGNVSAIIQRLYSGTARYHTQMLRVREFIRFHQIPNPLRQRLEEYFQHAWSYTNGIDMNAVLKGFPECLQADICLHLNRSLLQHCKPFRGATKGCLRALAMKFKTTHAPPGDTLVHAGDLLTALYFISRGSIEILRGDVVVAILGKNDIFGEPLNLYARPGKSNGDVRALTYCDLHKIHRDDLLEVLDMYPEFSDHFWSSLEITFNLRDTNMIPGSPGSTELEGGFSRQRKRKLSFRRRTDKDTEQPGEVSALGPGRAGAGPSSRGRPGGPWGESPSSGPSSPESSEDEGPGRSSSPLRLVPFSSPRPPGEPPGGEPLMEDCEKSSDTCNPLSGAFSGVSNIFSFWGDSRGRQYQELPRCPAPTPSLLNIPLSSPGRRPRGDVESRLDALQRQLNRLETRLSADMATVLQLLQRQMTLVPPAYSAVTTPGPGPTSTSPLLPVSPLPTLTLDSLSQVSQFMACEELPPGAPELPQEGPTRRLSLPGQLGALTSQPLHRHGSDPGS

Melanocortin receptor 3 = Melanocortin receptor 3 (Homo sapiens, UniProt P41968)
Chain of Melanocortin receptor 3 (P41968 whole entry): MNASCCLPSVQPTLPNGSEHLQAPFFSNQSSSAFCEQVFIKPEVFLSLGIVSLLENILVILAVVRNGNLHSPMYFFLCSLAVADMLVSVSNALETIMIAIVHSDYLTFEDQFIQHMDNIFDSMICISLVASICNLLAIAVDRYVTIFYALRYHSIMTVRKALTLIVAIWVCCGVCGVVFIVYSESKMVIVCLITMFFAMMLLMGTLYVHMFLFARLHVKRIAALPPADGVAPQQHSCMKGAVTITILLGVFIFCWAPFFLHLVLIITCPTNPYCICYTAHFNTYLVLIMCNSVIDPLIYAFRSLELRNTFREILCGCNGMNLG

[5] = target: Muscarinic acetylcholine receptor M3 (Homo sapiens, UniProt P20309)
Chain of Muscarinic acetylcholine receptor M3 (P20309 whole entry): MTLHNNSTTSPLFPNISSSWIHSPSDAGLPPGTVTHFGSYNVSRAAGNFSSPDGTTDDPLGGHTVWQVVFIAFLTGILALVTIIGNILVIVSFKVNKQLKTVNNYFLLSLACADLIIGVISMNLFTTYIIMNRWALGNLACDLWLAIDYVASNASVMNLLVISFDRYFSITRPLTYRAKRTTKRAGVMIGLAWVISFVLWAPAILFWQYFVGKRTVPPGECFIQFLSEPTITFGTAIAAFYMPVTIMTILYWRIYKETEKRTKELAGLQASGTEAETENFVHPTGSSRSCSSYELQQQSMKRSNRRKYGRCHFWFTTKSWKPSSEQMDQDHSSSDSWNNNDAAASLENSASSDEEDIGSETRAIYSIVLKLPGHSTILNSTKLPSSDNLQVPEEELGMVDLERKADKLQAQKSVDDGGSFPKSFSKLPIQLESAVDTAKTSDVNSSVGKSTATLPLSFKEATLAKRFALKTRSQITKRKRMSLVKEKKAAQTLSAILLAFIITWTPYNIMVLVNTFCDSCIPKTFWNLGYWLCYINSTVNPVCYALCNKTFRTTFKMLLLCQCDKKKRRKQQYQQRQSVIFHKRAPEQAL

[6] = target: T4, Muscarinic acetylcholine receptor M2 (Homo sapiens, UniProt P08172); format: functional, cell-based
T4 sequence (P08172 whole entry): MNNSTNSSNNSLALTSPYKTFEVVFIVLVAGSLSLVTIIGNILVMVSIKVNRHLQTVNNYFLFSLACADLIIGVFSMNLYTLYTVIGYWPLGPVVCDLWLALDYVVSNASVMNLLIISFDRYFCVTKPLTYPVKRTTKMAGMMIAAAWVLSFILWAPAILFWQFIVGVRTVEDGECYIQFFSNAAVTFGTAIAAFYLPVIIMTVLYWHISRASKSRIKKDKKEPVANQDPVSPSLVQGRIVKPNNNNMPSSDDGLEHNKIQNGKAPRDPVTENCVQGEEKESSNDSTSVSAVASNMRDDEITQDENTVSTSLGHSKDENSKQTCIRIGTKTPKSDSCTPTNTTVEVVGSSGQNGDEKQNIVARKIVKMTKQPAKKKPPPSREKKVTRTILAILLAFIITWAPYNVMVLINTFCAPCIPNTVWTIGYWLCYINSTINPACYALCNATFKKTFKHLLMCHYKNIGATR

Histamine H2 receptor = Histamine H2 receptor (Homo sapiens, UniProt P25021); format: functional, cell-based
Chain of Histamine H2 receptor (P25021 whole entry): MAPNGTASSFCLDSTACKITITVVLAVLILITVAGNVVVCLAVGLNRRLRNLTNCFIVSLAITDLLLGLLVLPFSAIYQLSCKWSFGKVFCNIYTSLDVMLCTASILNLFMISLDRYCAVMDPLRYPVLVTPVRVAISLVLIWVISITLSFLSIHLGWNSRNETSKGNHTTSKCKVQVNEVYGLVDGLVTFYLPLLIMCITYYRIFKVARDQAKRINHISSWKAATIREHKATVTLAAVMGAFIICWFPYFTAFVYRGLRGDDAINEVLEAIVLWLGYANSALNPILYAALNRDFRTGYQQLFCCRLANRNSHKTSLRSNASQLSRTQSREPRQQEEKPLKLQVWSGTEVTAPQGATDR

[7] = target: T5, Cholecystokinin receptor type A (Homo sapiens, UniProt P32238)
T5 sequence (P32238 whole entry): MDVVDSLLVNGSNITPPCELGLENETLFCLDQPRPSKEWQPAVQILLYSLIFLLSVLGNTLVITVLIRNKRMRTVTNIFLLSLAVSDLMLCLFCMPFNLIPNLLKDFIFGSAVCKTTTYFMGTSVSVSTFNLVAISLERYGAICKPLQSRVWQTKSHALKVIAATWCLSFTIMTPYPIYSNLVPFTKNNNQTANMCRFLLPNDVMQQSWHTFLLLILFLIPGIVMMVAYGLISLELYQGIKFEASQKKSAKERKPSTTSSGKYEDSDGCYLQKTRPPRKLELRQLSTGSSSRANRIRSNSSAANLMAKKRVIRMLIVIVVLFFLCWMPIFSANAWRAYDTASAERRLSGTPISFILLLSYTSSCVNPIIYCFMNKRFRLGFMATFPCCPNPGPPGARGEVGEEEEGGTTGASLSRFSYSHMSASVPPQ
Also: assay procedure not described here.

SMILES	AC50 [1]	AC50 [2]	AC50 (D(1A) dopamine receptor)	AC50 [3]	AC50 (B2 bradykinin receptor)	AC50 (Vasopressin V2 receptor)	AC50 [4]	AC50 (Melanocortin receptor 3)	AC50 [5]	AC50 [6]	AC50 (Histamine H2 receptor)	AC50 [7]
O=C(NCCNCC(O)COc1ccc(O)cc1)N1CCOCC1 (centres undefined) [XAMOTEROL]	> 30 µM	> 30 µM	> 30 µM	> 30 µM	> 30 µM	> 30 µM	> 30 µM	> 30 µM	> 30 µM	> 30 µM	> 30 µM	> 30 µM
C[C@H](CSC(=O)c1ccccc1)C(=O)N1C[C@@H](Sc2ccccc2)C[C@H]1C(=O)O [ZOFENOPRIL]	> 10 µM	> 10 µM	> 10 µM	> 10 µM	> 10 µM	> 10 µM	> 30 µM	> 10 µM	> 30 µM	> 10 µM	> 10 µM	> 10 µM
